From US20260053812A1, “METHODS OF TREATING HYPERTENSION WITH A COMBINATION OF AN ALDOSTERONE SYNTHASE INHIBITOR AND A DIURETIC” (Mineralys Therapeutics, Inc., priority 2022, published 2026)

Experiment: Adverse events (TEAEs, SAEs, AESI; Safety Analysis Set)
Excerpt: In analyses performed on the Safety Analysis Set, subjects will be analyzed according to their actual treatment received.

CC(=O)N[C@H]1CC[C@H](NC(=O)CN2CCN(c3nncc(-c4ccc(C)cc4)n3)CC2)CC1 [Compound A HBr]
On-treatment TEAE, Hyperkalaemia, Mild, % (Part 1, 100 mg QD (N = 30)): (26.7) % | On-treatment TEAE, Infections and infestations, % (Part 1, 100 mg QD (N = 30)): (6.7) % | On-treatment TEAE, Infections and infestations, Moderate, % (Part 1, 100 mg QD (N = 30)): (6.7) % | On-treatment TEAE, Investigations, % (Part 1, 100 mg QD (N = 30)): (26.7) % | On-treatment TEAE, Investigations, Mild, % (Part 1, 100 mg QD (N = 30)): (20.0) % | On-treatment TEAE, Investigations, Moderate, % (Part 1, 100 mg QD (N = 30)): (6.7) % | On-treatment TEAE, Metabolism and nutrition disorders, % (Part 1, 100 mg QD (N = 30)): (26.7) % | On-treatment TEAE, Metabolism and nutrition disorders, Mild, % (Part 1, 100 mg QD (N = 30)): (26.7) % | On-treatment TEAE, Psychiatric disorders, % (Part 1, 100 mg QD (N = 30)): (6.7) % | On-treatment TEAE, Psychiatric disorders, Moderate, % (Part 1, 100 mg QD (N = 30)): (6.7) % | On-treatment TEAE, Urinary tract infection, % (Part 1, 100 mg QD (N = 30)): (3.3) % | On-treatment TEAE, Vascular disorders, % (Part 1, 100 mg QD (N = 30)): (3.3) % | On-treatment TEAE, Vascular disorders, Moderate, % (Part 1, 100 mg QD (N = 30)): (3.3) % | Subjects with any On-treatment TEAEs leading to withdrawal from study drug, % (Part 1, 100 mg QD (N = 30)): (13.3) % | Subjects with any On-treatment TEAEs, Mild, % (Part 1, 100 mg QD (N = 30)): (30.0) % | Subjects with any On-treatment TEAEs, Moderate, % (Part 1, 100 mg QD (N = 30)): (23.3) % | TEAE leading to permanent discontinuation from study drug, Activated partial thromboplastin time prolonged, % (Part 1, 100 mg QD (N = 30)): (3.3) % | TEAE leading to permanent discontinuation from study drug, Hyperkalaemia, % (Part 1, 100 mg QD (N = 30)): (6.7) % | TEAE leading to permanent discontinuation from study drug, Hypotension, % (Part 1, 100 mg QD (N = 30)): (3.3) % | TEAE leading to permanent discontinuation from study drug, Investigations, % (Part 1, 100 mg QD (N = 30)): (3.3) % | TEAE leading to permanent discontinuation from study drug, Metabolism and nutrition disorders, % (Part 1, 100 mg QD (N = 30)): (6.7) % | TEAE leading to permanent discontinuation from study drug, Vascular disorders, % (Part 1, 100 mg QD (N = 30)): (3.3) % | On-treatment TEAE, Blood and lymphatic system disorders, % (Part 1, Active (N = 133)): (1.5) % | On-treatment TEAE, Blood and lymphatic system disorders, Mild, % (Part 1, Active (N = 133)): (1.5) % | On-treatment TEAE, Blood creatinine increased, % (Part 1, Active (N = 133)): (2.3) % | On-treatment TEAE, Blood creatinine increased, Mild, % (Part 1, Active (N = 133)): (2.3) % | On-treatment TEAE, Cardiac disorders, % (Part 1, Active (N = 133)): (3.0) % | On-treatment TEAE, Cortisol decreased, % (Part 1, Active (N = 133)): (2.3) % | On-treatment TEAE, Cortisol decreased, Mild, % (Part 1, Active (N = 133)): (2.3) % | On-treatment TEAE, Dizziness, % (Part 1, Active (N = 133)): (2.3) % | On-treatment TEAE, Gastrointestinal disorders, % (Part 1, Active (N = 133)): (4.5) % | On-treatment TEAE, Gastrointestinal disorders, Mild, % (Part 1, Active (N = 133)): (3.8) % | On-treatment TEAE, General disorders and administration site conditions, % (Part 1, Active (N = 133)): (3.8) % | On-treatment TEAE, General disorders and administration site conditions, Mild, % (Part 1, Active (N = 133)): (1.5) % | On-treatment TEAE, Glomerular filtration rate decreased, % (Part 1, Active (N = 133)): (6.8) % | On-treatment TEAE, Glomerular filtration rate decreased, Mild, % (Part 1, Active (N = 133)): (6.0) % | On-treatment TEAE, Headache, % (Part 1, Active (N = 133)): (2.3) % | On-treatment TEAE, Headache, Mild, % (Part 1, Active (N = 133)): (2.3) % | On-treatment TEAE, Hyperkalaemia, % (Part 1, Active (N = 133)): (23.3) % | On-treatment TEAE, Hyperkalaemia, Mild, % (Part 1, Active (N = 133)): (19.5) % | On-treatment TEAE, Hyperkalaemia, Moderate, % (Part 1, Active (N = 133)): (3.0) % | On-treatment TEAE, Hyperkalaemia, Severe, % (Part 1, Active (N = 133)): (0.8) % | On-treatment TEAE, Hypertension, % (Part 1, Active (N = 133)): (3.8) % | On-treatment TEAE, Hypertension, Moderate, % (Part 1, Active (N = 133)): (2.3) % | On-treatment TEAE, Infections and infestations, % (Part 1, Active (N = 133)): (8.3) % | On-treatment TEAE, Infections and infestations, Mild, % (Part 1, Active (N = 133)): (3.8) % | On-treatment TEAE, Infections and infestations, Moderate, % (Part 1, Active (N = 133)): (4.5) % | On-treatment TEAE, Investigations, % (Part 1, Active (N = 133)): (15.8) % | On-treatment TEAE, Investigations, Mild, % (Part 1, Active (N = 133)): (12.8) % | On-treatment TEAE, Investigations, Moderate, % (Part 1, Active (N = 133)): (3.0) % | On-treatment TEAE, Metabolism and nutrition disorders, % (Part 1, Active (N = 133)): (25.6) % | On-treatment TEAE, Metabolism and nutrition disorders, Mild, % (Part 1, Active (N = 133)): (21.8) % | On-treatment TEAE, Metabolism and nutrition disorders, Moderate, % (Part 1, Active (N = 133)): (3.0) % | On-treatment TEAE, Nervous system disorders, % (Part 1, Active (N = 133)): (6.0) % | On-treatment TEAE, Nervous system disorders, Mild, % (Part 1, Active (N = 133)): (4.5) % | On-treatment TEAE, Orthostatic hypotension, % (Part 1, Active (N = 133)): (2.3) % | On-treatment TEAE, Orthostatic hypotension, Mild, % (Part 1, Active (N = 133)): (2.3) % | On-treatment TEAE, Psychiatric disorders, % (Part 1, Active (N = 133)): (2.3) % | On-treatment TEAE, Psychiatric disorders, Moderate, % (Part 1, Active (N = 133)): (2.3) % | On-treatment TEAE, Urinary tract infection, % (Part 1, Active (N = 133)): (5.3) % | On-treatment TEAE, Urinary tract infection, Mild, % (Part 1, Active (N = 133)): (3.0) % | On-treatment TEAE, Vascular disorders, % (Part 1, Active (N = 133)): (6.8) % | On-treatment TEAE, Vascular disorders, Mild, % (Part 1, Active (N = 133)): (3.8) % | On-treatment TEAE, Vascular disorders, Moderate, % (Part 1, Active (N = 133)): (3.0) % | Subjects with any On-treatment TEAEs leading to withdrawal from study drug, % (Part 1, Active (N = 133)): (7.5) % | Subjects with any On-treatment TEAEs, Mild, % (Part 1, Active (N = 133)): (35.3) % | Subjects with any On-treatment TEAEs, Moderate, % (Part 1, Active (N = 133)): (18.8) % | Subjects with any On-treatment TEAEs, Severe, % (Part 1, Active (N = 133)): (0.8) % | TEAE leading to permanent discontinuation from study drug, Activated partial thromboplastin time prolonged, % (Part 1, Active (N = 133)): (0.8) % | TEAE leading to permanent discontinuation from study drug, Cardiac disorders, % (Part 1, Active (N = 133)): (0.8) % | TEAE leading to permanent discontinuation from study drug, Coronary artery disease, % (Part 1, Active (N = 133)): (0.8) % | TEAE leading to permanent discontinuation from study drug, Dizziness, % (Part 1, Active (N = 133)): (0.8) % | TEAE leading to permanent discontinuation from study drug, Hyperkalaemia, % (Part 1, Active (N = 133)): (3.8) % | TEAE leading to permanent discontinuation from study drug, Hypertension, % (Part 1, Active (N = 133)): (0.8) % | TEAE leading to permanent discontinuation from study drug, Hypotension, % (Part 1, Active (N = 133)): (0.8) % | TEAE leading to permanent discontinuation from study drug, Investigations, % (Part 1, Active (N = 133)): (0.8) % | TEAE leading to permanent discontinuation from study drug, Metabolism and nutrition disorders, % (Part 1, Active (N = 133)): (3.8) % | TEAE leading to permanent discontinuation from study drug, Nervous system disorders, % (Part 1, Active (N = 133)): (0.8) % | TEAE leading to permanent discontinuation from study drug, Orthostatic hypotension, % (Part 1, Active (N = 133)): (0.8) %
